Structures can show the parent of a compound that is named as a salt.

Consider 1 compound from PMC6667453, “Opportunistic complexes of E. coli L-asparaginases with citrate anions” (Scientific Reports, 2019).

Type in all cases: binding
The target in assay [1] is T1, EcAII, type II L-asparaginase from Escherichia coli (Escherichia coli, UniProt P00805).
T1 construct: gene ansB; Met-(His)6-EcAII, N-terminal tag kept; secreted from E. coli triple asparaginase knockout
T1 sequence (P00805 23-348): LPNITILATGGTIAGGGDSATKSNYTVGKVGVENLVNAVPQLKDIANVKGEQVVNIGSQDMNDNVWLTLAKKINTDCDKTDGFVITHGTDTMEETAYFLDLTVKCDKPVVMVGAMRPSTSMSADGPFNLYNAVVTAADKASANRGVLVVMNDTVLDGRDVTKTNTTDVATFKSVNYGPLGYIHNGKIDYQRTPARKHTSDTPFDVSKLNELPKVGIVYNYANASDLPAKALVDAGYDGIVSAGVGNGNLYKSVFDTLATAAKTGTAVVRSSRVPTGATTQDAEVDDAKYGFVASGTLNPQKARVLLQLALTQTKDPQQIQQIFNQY
In words: intact-protein LC/MS (electrospray). The settings on record: pH 4.0, 200 mM citrate; no L-Asp; covalent (addition of citrate minus water).

In assay [2] the target is T2, EcAII, type II L-asparaginase from Escherichia coli (Escherichia coli, UniProt P00805, D112T/K184T).
T2 construct: gene ansB; Met-(His)6-EcAII, N-terminal tag kept; secreted from E. coli triple asparaginase knockout
In words: X-ray crystal structure. The settings on record: pH 5.0 (also pH 5.6, 6nx7; pH 6.2, 6nx8), 0.17 M citrate, 10 mM L-Asn, 293 K; non-covalent, one of two active sites (protomer B); stabilised by His6-tag of symmetry mate, called an artifact.

For assay [3], the target named is T1, EcAII, type II L-asparaginase from Escherichia coli. As to the kind of experiment: X-ray crystal structure. Conditions: pH 7.0, 0.17 M ammonium citrate, 17% PEG3350, 100 K; non-covalent, all four active sites.
Assay [4] has as its target T3, EcAI (AnsA), type I L-asparaginase from E. coli (Escherichia coli, UniProt P0A962).
T3 construct: four protomers (two dimers) in the asymmetric unit
T3 sequence (P0A962 1-338): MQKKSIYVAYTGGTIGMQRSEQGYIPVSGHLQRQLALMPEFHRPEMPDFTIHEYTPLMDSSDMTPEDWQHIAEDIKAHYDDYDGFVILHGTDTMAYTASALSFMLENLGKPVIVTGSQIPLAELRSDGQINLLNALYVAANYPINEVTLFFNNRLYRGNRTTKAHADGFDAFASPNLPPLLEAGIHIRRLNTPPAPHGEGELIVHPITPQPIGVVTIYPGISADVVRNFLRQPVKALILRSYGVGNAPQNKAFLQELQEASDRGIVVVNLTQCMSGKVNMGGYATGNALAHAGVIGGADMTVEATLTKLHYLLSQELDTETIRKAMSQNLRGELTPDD
As to the kind of experiment: X-ray crystal structure, re-refined from deposited data (2p2n). Conditions: pH about 4.0 (0.1 M citrate, 1 M NaCl); covalent, acyl-enzyme ester to Thr14 OG1 in active site; re-interpretation of ligand first modelled as L-Asp/L-Asn.

T2 sequence (P00805 23-348 D112T/K184T): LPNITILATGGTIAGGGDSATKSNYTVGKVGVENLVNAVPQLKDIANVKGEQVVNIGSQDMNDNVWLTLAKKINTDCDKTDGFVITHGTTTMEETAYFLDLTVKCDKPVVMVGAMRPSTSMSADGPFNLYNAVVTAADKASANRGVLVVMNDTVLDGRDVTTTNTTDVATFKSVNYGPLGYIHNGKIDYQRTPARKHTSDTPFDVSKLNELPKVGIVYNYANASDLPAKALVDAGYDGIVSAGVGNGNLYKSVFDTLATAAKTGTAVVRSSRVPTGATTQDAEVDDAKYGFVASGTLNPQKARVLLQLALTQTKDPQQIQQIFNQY

`O=C(O)CC(O)(CC(=O)O)C(=O)O` [CIT, citrate]: in assay [1], the “% abundance of adduct (+174.0) at 200 mM citrate” value is reported as 38.1%. The values for the X-ray crystal structure entry in assay [2] and in assay [3] were “maps indicated clearly the presence of a citrate anion in this site” and “The shape of this peak could be unambiguously interpreted as a citrate anion”, respectively. For the same compound, in assay [4], the “X-ray crystal structure, re-refined from deposited data (2p2n)” value is on record as “substitution by citrate anions covalently linked to the side chain of Thr14”.
